This assay relates to cardiomyocytes (CM). As to the kind of experiment: Drug evaluation: CM contractility (contractile force, beating rate) measured with the Ag/CNT-PDMS crack sensor. The note with it: for pEC50: Cardiomyocyte.

pEC50: −log10 of the molar value. Like-named read-outs stand apart in the source and are kept apart here.

With `CC(C)NCC(O)c1ccc(O)c(O)c1` (stereo not shown) [isoproterenol], the negative logarithm of the EC50 (pEC50) (usually −log10 of the EC50, conventionally taken in molar units) by setting is: (read-out: apparent EC50 of CM beating rate (dose-response curve)) 7.15; (read-out: apparent EC50 of CM contractile force (dose-response curve)) 7.03. Also, the “contractile force and beating rate” value (concentration increased from 0.1 nM to 1 μM) is listed as “gradually increased”. Also, the CM contractility result (when the concentration reached 100 nM) is given as “became saturated”.

These data come from US12480848B2, “Crack sensor, preparation method therefor, and application thereof in micro-force measurement” (QILU UNIVERSITY OF TECHNOLOGY (SHANDONG ACADEMY OF SCIENCES), priority 2022, dated 2025).
